# *1 amine or outer side, *2 acyl side, *3 side chain or, on linkers, in order; H or OH if unused. Where a SMILES comes first, the peptide text is derived from it. Bridges are numbered along the chain shown (N, C = ends). [ ]: non-standard residue; d: D form. The star is where a group is joined. ξ: configuration not given here. NMeAbu(3,3-F2-piperidino) = CN[C@@H](CCN1CCCC(F)(F)C1)C(=O)O; Phe(3-CONHMe,4-OMe) = CNC(=O)c1cc(C[C@H](N)C(=O)O)ccc1OC; Phe(3-OMe,4-CONHMe) = CNC(=O)c1ccc(C[C@H](N)C(=O)O)cc1OC; NMeAla(4-thiazolyl) = CN[C@@H](Cc1cscn1)C(=O)O; NMePhe(3-Cl) = CN[C@@H](Cc1cccc(Cl)c1)C(=O)O; Tyr(3-F) = N[C@@H](Cc1ccc(O)c(F)c1)C(=O)O; NMehPhe = CN[C@@H](CCc1ccccc1)C(=O)O; Ethyl(2-morpholino) = C1CN(CC*)CCO1; X7 = O=C(C[C@H](COCCO)N[*:1])[*:2]; NMeF = CN[C@@H](Cc1ccccc1)C(=O)O; NMeGABA = CN(CCCC(=O)[*:2])[*:1]; NMeI = CC[C@H](C)[C@H](NC)C(=O)O; Butyl(3-Me,3-OH) = CC(C)(O)CC*; NMeL = CN[C@@H](CC(C)C)C(=O)O; Thr(3ξ) = CC(O)[C@H](N)C(=O)O; Propyl(2R-OH) = C[C@@H](O)C*; NMeV = CN[C@H](C(=O)O)C(C)C; NMeAbu = CC[C@H](NC)C(=O)O; NMeA = CN[C@@H](C)C(=O)O; Piperidide = C1CCN(*)CC1; CH2CMe2OH = CC(C)(O)C*; CH2CONHMe = CNC(=O)C*; NBuGly = CCCCNCC(=O)O; Isopentyl = CC(C)CC*; NPrGly = CCCNCC(=O)O; Propyl(3-OH) = OCCC*; ξS = NC(CO)C(=O)O; X3 = C[C@H](O)C*; Sar = CNCC(=O)O; tBu = CC(C)(C)*
# Test: in vitro
# Conditions: human, Caco-2, Caco-2
row,SMILES,Papp [×10⁻⁶ cm/s]
1,"CC(C)CCOC[C@@H]1NC(=O)[C@H](CCN2CCCC(F)(F)C2)N(C)C(=O)[C@H](Cc2ccccc2)N(C)C(=O)CN(C)C(=O)[C@H]([C@@H](C)O)NC(=O)[C@H](CC(C)C)N(C)C(=O)[C@H](CC(C)C)NC(=O)[C@H](Cc2ccccc2)N(C)C(=O)CN(C)C(=O)C[C@@H](C(=O)N2CCCCC2)NC(=O)[C@H](CC(C)C)N(C)C1=O [pd393] ([Sar][NMeF]L[NMeL]T[Sar][NMeF][NMeAbu(3,3-F2-piperidino)]S(Isopentyl)[NMeL]D-Piperidide; lactam N-11)",2.8
2,"CCCCN1CC(=O)N(C)[C@@H](CC(C)C)C(=O)N[C@@H](COC(C)(C)C)C(=O)N(C)[C@@H](Cc2ccccc2)C(=O)N(C)[C@@H](C(C)C)C(=O)N[C@H](C(=O)N2CCCCC2)CC(=O)N[C@H](C)C(=O)N(C)[C@@H](Cc2ccccc2)C(=O)N[C@@H](CC(C)C)C(=O)N(C)[C@@H](CCN2CCCC(F)(F)C2)C(=O)N[C@@H]([C@@H](C)O)C1=O [pd386] ([dA][NMeF]L[NMeAbu(3,3-F2-piperidino)]T[NBuGly][NMeL]S(tBu)[NMeF][NMeV]D-Piperidide; lactam N-11)",2.3
3,CCCCN1CC(=O)N(C)[C@@H](CC(C)C)C(=O)N[C@H](C(=O)N2CCCCC2)CC(=O)N(C)[C@@H](CC)C(=O)NC(COCCN2CCOCC2)C(=O)N(C)[C@@H](CC(C)C)C(=O)N(C)[C@@H](CC)C(=O)N[C@@H](C(C)C)C(=O)N(C)[C@@H](Cc2ccccc2)C(=O)N(C)[C@@H](CC(C)C)C(=O)N[C@@H]([C@@H](C)O)C1=O (stereo partly drawn) [pd483] ([NMeAbu][ξS](Ethyl(2-morpholino))[NMeL][NMeAbu]V[NMeF][NMeL]T[NBuGly][NMeL]D-Piperidide; lactam N-11),1.9

# Same assay, conditions: human, Caco-2, Caco-2 (cm/sec)
row,SMILES,Papp [×10⁻⁶ cm/s]
1,CC(C)C[C@@H]1NC(=O)[C@H](C)N(C)C(=O)C[C@@H](C(=O)N2CCCCC2)NC(=O)[C@H](CC(C)C)N(C)C(=O)CN(C)C(=O)[C@H](Cc2ccc(O)c(F)c2)NC(=O)[C@H](CC(C)C)N(C)C(=O)[C@H](C)N(C)C(=O)[C@H](C)NC(=O)[C@H](Cc2ccccc2)N(C)C(=O)[C@H](CC(C)C)N(C)C1=O [pd120] ([NMeA]L[NMeL][NMeF]A[NMeA][NMeL][Tyr(3-F)][Sar][NMeL]D-Piperidide; lactam N-11),0.23
2,CC[C@H](C)[C@@H]1NC(=O)[C@H](CC(C)C)N(C)C(=O)CCCN(C)C(=O)C[C@@H](C(=O)N2CCCCC2)NC(=O)[C@H](CC(C)C)N(C)C(=O)[C@H](CC(C)C)N(C)C(=O)[C@H]([C@@H](C)O)NC(=O)[C@H](CC(C)C)N(C)C(=O)[C@H](COCCCO)NC(=O)[C@H](Cc2cccc(Cl)c2)N(C)C(=O)[C@H](Cc2ccccc2)N(C)C1=O [AP92] ([NMeGABA][NMeL]I[NMeF][NMePhe(3-Cl)]S(Propyl(3-OH))[NMeL]T[NMeL][NMeL]D-Piperidide; lactam N-11),0.18
3,CC(C)C[C@@H]1NC(=O)[C@H](Cc2ccccc2)N(C)C(=O)[C@@H](C(C)C)NC(=O)C[C@@H](C(=O)N2CCCCC2)NC(=O)[C@H](CC(C)C)N(C)C(=O)[C@H](CC(C)C)N(C)C(=O)[C@H](Cc2ccc(O)c(F)c2)NC(=O)[C@H](CC(C)C)N(C)C(=O)CN(C)C(=O)[C@H]([C@@H](C)O)NC(=O)[C@H](CC(C)C)N(C)C1=O [pd128] ([dV][NMeF]L[NMeL]T[Sar][NMeL][Tyr(3-F)][NMeL][NMeL]D-Piperidide; lactam N-11),0.17
4,"CCCCN1CC(=O)N(C)[C@@H](CC(C)C)C(=O)N(C)[C@@H](CC(C)C)C(=O)N[C@@H](COC(C)(C)C)C(=O)N(C)[C@@H](CC(C)C)C(=O)N[C@H](C(=O)N2CCCCC2)CC(=O)N(C)CC(=O)N(C)[C@@H](Cc2cccc(Cl)c2)C(=O)N[C@@H](Cc2ccc(C(=O)NC)c(OC)c2)C(=O)N(C)[C@@H](CC(C)C)C(=O)N[C@@H]([C@@H](C)O)C1=O [AP33] ([Sar][NMePhe(3-Cl)][Phe(3-OMe,4-CONHMe)][NMeL]T[NBuGly][NMeL][NMeL]S(tBu)[NMeL]D-Piperidide; lactam N-11)",0.61
5,"CNC(=O)c1ccc(C[C@@H]2NC(=O)[C@H](CC(C)C)N(C)C(=O)[C@H](CC(C)C)N(C)C(=O)[C@H](CC(C)C)NC(=O)[C@H](CC(C)C)N(C)C(=O)C[C@@H](C(=O)N3CCCCC3)NC(=O)[C@H](CC(C)C)N(C)C(=O)CN(C)C(=O)[C@H](C(C)O)NC(=O)[C@H](C(C)C)N(C)C(=O)[C@H](CC(C)C)N(C)C2=O)cc1OC (stereo partly drawn) [AP32] ([NMeL]L[NMeL][NMeL][Phe(3-OMe,4-CONHMe)][NMeL][NMeV][Thr(3ξ)][Sar][NMeL]D-Piperidide; lactam N-11)",1.3
6,CCCN1CC(=O)N(C)[C@@H](Cc2ccccc2)C(=O)N(C)[C@@H](CC(C)C)C(=O)N[C@@H](COCCC(C)C)C(=O)N(C)[C@@H](CC(C)C)C(=O)N[C@H](C(=O)N2CCCCC2)CC(=O)N(C)CC(=O)N(C)[C@@H](Cc2cccc(Cl)c2)C(=O)N[C@@H](COC[C@H](C)O)C(=O)N(C)[C@@H](CC(C)C)C(=O)N[C@@H]([C@@H](C)O)C1=O [AP67] ([Sar][NMePhe(3-Cl)]S(X3)[NMeL]T[NPrGly][NMeF][NMeL]S(Isopentyl)[NMeL]D-Piperidide; lactam N-11),0.71
7,"CC(C)C[C@@H]1NC(=O)[C@H](CCc2ccccc2)N(C)C(=O)[C@@H](C(C)C)NC(=O)C[C@@H](C(=O)N2CCCCC2)NC(=O)[C@H](CC(C)C)N(C)C(=O)[C@H](Cc2ccccc2)N(C)C(=O)[C@H](COCCC(C)(C)O)NC(=O)[C@H](CC(C)C)N(C)C(=O)CN(C)C(=O)[C@H]([C@@H](C)O)NC(=O)[C@H](CC(C)C)N(C)C1=O [AP60] ([dV][NMehPhe]L[NMeL]T[Sar][NMeL]S(Butyl(3-Me,3-OH))[NMeF][NMeL]D-Piperidide; lactam N-11)",1
8,CCCN1CC(=O)N(C)[C@@H](CC(C)C)C(=O)N[C@H](C(=O)N2CCCCC2)CC(=O)N(C)[C@@H](CC(C)C)C(=O)N[C@@H](Cc2ccccc2)C(=O)N(C)[C@@H](CC(C)C)C(=O)N(C)[C@@H](CC(C)C)C(=O)N[C@@H](COCCO)CC(=O)N(C)[C@@H](Cc2ccccc2)C(=O)N(C)[C@@H](CC(C)C)C(=O)N[C@@H]([C@@H](C)O)C1=O [AP24] ([NMeL]F[NMeL][NMeL][X7][NMeF][NMeL]T[NPrGly][NMeL]D-Piperidide; lactam N-11),0.42
9,CC[C@H](C)[C@H]1C(=O)N[C@@H](C(C)C)C(=O)N(C)CC(=O)N(C)[C@@H](CC(C)C)C(=O)N[C@H](C(=O)N2CCCCC2)CC(=O)N(C)[C@@H](C)C(=O)N[C@@H](COC[C@@H](C)O)C(=O)N(C)[C@@H](CC(C)C)C(=O)N(C)[C@@H](Cc2ccccc2)C(=O)N[C@@H](CC(C)C)C(=O)N(C)[C@@H](Cc2ccccc2)C(=O)N1C [AP86] ([NMeA]S(Propyl(2R-OH))[NMeL][NMeF]L[NMeF][NMeI]V[Sar][NMeL]D-Piperidide; lactam N-11),3.7
10,"CC[C@H](C)[C@@H]1NC(=O)[C@H](CC(C)C)N(C)C(=O)CN(C)C(=O)C[C@@H](C(=O)N2CCCCC2)NC(=O)[C@H](CC(C)C)N(C)C(=O)[C@H](Cc2ccc(OC)c(C(=O)NC)c2)NC(=O)[C@H](CC(C)C)N(C)C(=O)[C@H](Cc2cccc(Cl)c2)N(C)C(=O)CN(C)C(=O)[C@H]([C@@H](C)O)NC(=O)[C@H](CC(C)C)N(C)C1=O [AP42] ([Sar][NMeL]I[NMeL]T[Sar][NMePhe(3-Cl)][NMeL][Phe(3-CONHMe,4-OMe)][NMeL]D-Piperidide; lactam N-11)",0.25
11,CCCN1CC(=O)N(C)[C@@H](Cc2ccccc2)C(=O)N[C@@H]([C@@H](C)CC)C(=O)N(C)[C@@H](CC(C)C)C(=O)N[C@@H]([C@@H](C)O)C(=O)N(CCC)CC(=O)N(C)[C@@H](Cc2ccccc2)C(=O)N(C)[C@@H](CC(C)C)C(=O)N[C@@H](COCC(C)(C)O)C(=O)N(C)[C@@H](C(C)C)C(=O)N[C@H](C(=O)N2CCCCC2)CC1=O [AP09] ([NPrGly][NMeF]I[NMeL]T[NPrGly][NMeF][NMeL]S(CH2CMe2OH)[NMeV]D-Piperidide; lactam N-11),1.1

# Same assay, conditions: human, Caco-2, Caco-2 (cm/sec) Papp
row,SMILES,Papp [×10⁻⁶ cm/s]
1,CC(C)C[C@@H]1NC(=O)[C@H](Cc2ccccc2)N(C)C(=O)C[C@@H](C(=O)N2CCCCC2)NC(=O)[C@H](CC(C)C)N(C)C(=O)CN(C)C(=O)[C@H]([C@@H](C)O)NC(=O)[C@H](Cc2ccccc2)N(C)C(=O)[C@H](Cc2ccccc2)N(C)C(=O)[C@H](CC(C)C)NC(=O)[C@H](Cc2ccccc2)N(C)C(=O)[C@H](CC(C)C)N(C)C1=O [pd227] ([NMeF]L[NMeL][NMeF]L[NMeF][NMeF]T[Sar][NMeL]D-Piperidide; lactam N-11),0.61
2,CC(C)C[C@H]1C(=O)N[C@@H](COC(C)(C)C)C(=O)N[C@@H]([C@@H](C)O)C(=O)N(C)[C@@H](Cc2ccccc2)C(=O)N[C@H](C(=O)N2CCCCC2)CC(=O)N[C@@H](C)C(=O)N(C)[C@@H](Cc2ccccc2)C(=O)N(C)[C@@H](C)C(=O)N(C)[C@@H](Cc2ccccc2)C(=O)N(C)[C@@H](CC(C)C)C(=O)N[C@@H](Cc2ccccc2)C(=O)N1C [pd237] (A[NMeF][NMeA][NMeF][NMeL]F[NMeL]S(tBu)T[NMeF]D-Piperidide; lactam N-11),0.089
3,CC(C)C[C@@H]1NC(=O)[C@H](CC(C)C)N(C)C(=O)C[C@@H](C(=O)N2CCCCC2)NC(=O)[C@H](CC(C)C)N(C)C(=O)CN(C)C(=O)[C@H]([C@@H](C)O)NC(=O)[C@H](Cc2cscn2)N(C)C(=O)[C@H](Cc2ccccc2)N(C)C(=O)[C@H](Cc2ccccc2)NC(=O)[C@H](Cc2ccccc2)N(C)C(=O)[C@H](CC(C)C)N(C)C1=O [pd228] ([NMeL]L[NMeL][NMeF]F[NMeF][NMeAla(4-thiazolyl)]T[Sar][NMeL]D-Piperidide; lactam N-11),0.58

# Same assay, conditions: human, Caco-2, Caco-2 (membrane permeability)
row,SMILES,Papp [×10⁻⁶ cm/s]
1,CCCCN1CC(=O)N(C)[C@@H](CC(C)C)C(=O)N[C@@H](COCC(=O)NC)C(=O)N(C)[C@@H](CCc2ccccc2)C(=O)N(C)[C@@H](CC(C)C)C(=O)N[C@H](C(=O)N2CCCCC2)CC(=O)N[C@H](CC(C)C)C(=O)N(C)[C@@H](CC(C)C)C(=O)N[C@@H](Cc2ccccc2)C(=O)N(C)[C@@H](CC(C)C)C(=O)N[C@@H]([C@@H](C)O)C1=O [Compound I02] ([dL][NMeL]F[NMeL]T[NBuGly][NMeL]S(CH2CONHMe)[NMehPhe][NMeL]D-Piperidide; lactam N-11),0.052
